Data on 10 compounds can be found in article PMC9821907, “Synthesis and Antiprotozoal Activity of Azabicyclo-Nonane Pyrimidine Hybrids” (Molecules, 2022).

Series [1] has as its system T. brucei rhodesiense STIB900. More on the design: method as in PMID 25746816. The conditions noted are these: ref [12]; cited from earlier work.
Series [2] has as its system P. falciparum K1. More on the design: method as in PMID 25746816. To be noted: K1 strain, resistant to chloroquine, sulfadoxine and pyrimethamine; ref [12]; cited from earlier work.
Series [3] concerns L-6 cells. The conditions noted are these: cited from earlier work.
The subject of series [4] is P. falciparum K1. Nature of the series: In vitro microplate 3H-hypoxanthine incorporation assay against P. falciparum K1. It is filed as cell-based, Plasmodium falciparum. To be noted: Plasmodium falciparum, K1, K1 strain, resistant to chloroquine, sulfadoxine and pyrimethamine; average of four determinations; read-out: P. falciparum K1 IC50. As to the method:
(§1) Compounds were tested for their activities against Plasmodium falciparum NF54 (sensitive to chloroquine) and Trypanosoma brucei rhodesiense STIB900, via serial dilution assays. Furthermore, selected compounds were tested against the K1 strain of Plasmodium falciparum (resistant against chloroquine, sulfadoxine and pyrimethamine). Their cytotoxicity was determined with rat skeletal myoblasts (L-6 cells).
(§2) In vitro activity against erythrocytic stages of P. falciparum was determined using a ^3H-hypoxanthine incorporation assay using the drug sensitive NF54 strain [27] or the chloroquine- and pyrimethamine-resistant K1 strain [28]. Compounds were dissolved in DMSO at 10 mg/mL and further diluted in medium before being added to parasite cultures incubated in RPMI 1640 medium without hypoxanthine, supplemented with HEPES (5.94 g/L), NaHCO3 (2.1 g/L), neomycin (100 U/mL), Albumax® (5 g/L) and washed human red cells A+ at 2.5% haematocrit (0.3% parasitaemia). Serial drug dilutions of eleven 3-fold dilution steps covering a range from 100 to 0.002 μg/mL were prepared. The 96-well plates were incubated in a humidified atmosphere at 37 °C; 4% CO2, 3% O2, 93% N2. After 48 h, 0.05 mL of ^3H-hypoxanthine (= 0.5 μCi) was added to each well of the plate. The plates were incubated for a further 24 h under the same conditions. The plates were then harvested with a Betaplate™ cell harvester (Wallac, Zurich, Switzerland), and the red blood cells transferred onto a glass fibre filter then washed with distilled water. The dried filters were inserted into a plastic foil with 10 mL of scintillation fluid, and counted in a Betaplate™ liquid scintillation counter (Wallac, Zurich, Switzerland). IC50 values were calculated from sigmoidal inhibition curves by linear regression using Microsoft Excel. Chloroquine (Sigma C6628) was used as control.

For series [5], the system named is P. falciparum NF54. The conditions noted are these: NF54 strain, sensitive to chloroquine and pyrimethamine, cited from earlier work.
Series [6] has as its system P. falciparum NF54. Nature of the series: In vitro microplate 3H-hypoxanthine incorporation assay against P. falciparum NF54. It is filed as cell-based. To be noted: Plasmodium falciparum; NF54 strain, sensitive to chloroquine and pyrimethamine; average of four determinations; read-out: P. falciparum NF54 IC50. As for the experimental part: as §1, §2
A further series is described as follows: in vitro. To be noted: rat. As to the method:
as §1
(§3) Assays were performed in 96-well microtiter plates, each well containing 0.1 mL of RPMI 1640 medium supplemented with 1% L-glutamine (200 mM) and 10% fetal bovine serum, and 4000 L-6 cells (a primary cell line derived from rat skeletal myoblasts, ATCC CRL-1458™). Serial drug dilutions of eleven 3-fold dilution steps covering a range from 100 to 0.002 μg/mL were prepared. After 70 h of incubation the plates were inspected under an inverted microscope to assure growth of the controls and sterile conditions. Then, 0.01 mL resazurin solution (resazurin, 12.5 mg in 100 mL double-distilled water) was added to each well and the plates incubated for another 2 h. The plates were read with a Spectramax Gemini XS microplate fluorometer (Molecular Devices Cooperation, Sunnyvale, CA, USA) using an excitation wave length of 536 nm and an emission wave length of 588 nm. The IC50 values were calculated by linear regression from the sigmoidal dose inhibition curves using SoftmaxPro software (Molecular Devices Cooperation, Sunnyvale, CA, USA). Podophyllotoxin (Sigma P4405) was used as control.

Series [7] relates to T. brucei rhodesiense STIB900. Description: In vitro microplate resazurin assay against T. brucei rhodesiense. It is filed as cell-based. To be noted: Trypanosoma brucei; bloodstream forms; average of four determinations; read-out: T. brucei rhodesiense STIB900 IC50. As to the method: as §1
Minimum essential medium (50 µL) supplemented with 25 mM HEPES, 1g/L additional glucose, 1% MEM non-essential amino acids (100×), 0.2 mM 2-mercaptoethanol, 1mM Na-pyruvate and 15% heat-inactivated horse serum was added to each well of a 96-well microtiter plate. Serial drug dilutions of eleven 3-fold dilution steps covering a range from 100 to 0.002 μg/mL were prepared. Then 4 × 10^3 bloodstream forms of T. b. rhodesiense STIB 900 in 50 µL was added to each well and the plate incubated at 37 °C under a 5 % CO2 atmosphere for 70 h. Next, 10 µL resazurin solution (resazurin, 12.5 mg in 100 mL double-distilled water) was added to each well and incubation continued for a further 2–4 h. Then the plates were read with a Spectramax Gemini XS microplate fluorometer (Molecular Devices Cooperation, Sunnyvale, CA, USA) using an excitation wave length of 536 nm and an emission wave length of 588 nm. Data were analyzed with the graphic programme Softmax Pro (Molecular Devices Cooperation, Sunnyvale, CA, USA), which calculated IC50 values by linear regression and 4-parameter logistic regression from the sigmoidal dose inhibition curves. Melarsoprol (Arsobal Sanofi-Aventis, received from WHO) was used as control.
For orientation: The colour change of resazurin is a common sign of viable cells or microbes.

The test system of series [8] is L-6 cells. Description: In vitro cytotoxicity with L-6 cells. The conditions noted are these: read-out: Cytotoxicity L-6 Cells IC50; rat skeletal myoblasts; average of four determinations. As for the experimental part:
as §1, §3

Where two headings read alike, the source gives them in different places.

The term IC50 denotes the concentration that inhibits the measured activity by half. Take “5-(pyrrolidin-1-yl)-2-azabicyclononane [Compound 2]”: the results for the IC50 (in [1]; in the series with P. falciparum K1 [2]; with L-6 cells [3]) were 1160 nM, 560 nM and 120000 nM, respectively.

Consider “1-(piperidin-1-yl)-3-azabicyclononane [Compound 3]”, for which the IC50 is 2020 nM in series [1], 750 nM in the series with P. falciparum K1 [2] and 122000 nM in the series with L-6 cells [3].

As for `CCc1nc(N)nc(N)c1-c1ccc(Cl)cc1` [PYR, pyrimethamine, reference compound], the IC50 is 10000 nM with P. falciparum K1 [4] and 17 nM with P. falciparum NF54 [5] (ref [24]).

In the case of “5-(piperidin-1-yl)-2-azabicyclo-nonane [Compound 1]”, the half-maximal inhibitory concentration (IC50) in series [1] was 6570 nM; in the series with P. falciparum K1 [2] it was 640 nM; with L-6 cells [3] it was 89700 nM.

With `Cc1cc(N2CC3C(c4ccccc4)CC(N4CCCCC4)(CC3c3ccccc3)C2)nc(N2CCCCC2)n1` (racemic) [Compound 23, rac-(7R,8R)-3-[6-methyl-2-(piperidin-1-yl)pyrimidin-4-yl]-6,9-diphenyl-1-(piperidin-1-yl)-3-azabicyclo[3.2.2]nonane], the concentration for half-maximal inhibition (IC50) stood at 607 ± 10 nM in the series on P. falciparum NF54 [6], 3380 ± 9 nM in [7] and 570 ± 12 nM with P. falciparum K1 [4]. This compound displayed a half-maximal inhibitory concentration (IC50) at 72 h in “in vitro” of 16000 ± 1240 nM.

With `Cc1cc(N2CC3C(c4ccccc4)CC(N4CCCC4)(CC3c3ccccc3)C2)nc(N2CCCC2)n1` (racemic) [Compound 20, rac-(7R,8R)-3-[6-methyl-2-(pyrrolidin-1-yl)pyrimidin-4-yl]-6,9-diphenyl-1-(pyrrolidin-1-yl)-3-azabicyclo[3.2.2]nonane], the values for the half-maximal inhibitory concentration (IC50) (in the series with P. falciparum NF54 [6]; in series [7]; in the series on P. falciparum K1 [4]) were 87 ± 59 nM, 764 ± 335 nM and 87 ± 47 nM, respectively. Moreover, in “in vitro”, the IC50 at 72 h worked out at 4160 ± 39 nM.

For the compound `COc1cc([C@@H]2c3cc4c(cc3[C@H](O)[C@H]3COC(=O)[C@H]23)OCO4)cc(OC)c1OC` [POD, podophyllotoxin, reference compound], the IC50 in the series on L-6 cells [8] was determined as 12 nM.

For `Cc1cc(N2CCC3(N4CCCCC4)C[C@H](c4ccccc4)C2[C@@H](c2ccccc2)C3)nc(Cl)n1` (racemic) [Compound 13, rac-(7R,8R)-2-(2-chloro-6-methylpyrimidin-4-yl)-7,8-diphenyl-5-(piperidin-1-yl)-2-azabicyclo[3.2.2]nonane], the values for the half-maximal inhibitory concentration (IC50) (with P. falciparum NF54 [6]; in series [7]; in the series with P. falciparum K1 [4]) were 694 ± 18 nM, 1550 ± 47 nM and 567 ± 47 nM, respectively. In the series “in vitro”, the IC50 at 72 h was 3100 ± 51 nM.

Regarding “1-(pyrrolidin-1-yl)-3-azabicyclononane [Compound 4]”, the IC50 in series [1] is 1000 nM; in the series with P. falciparum K1 [2], 95 nM; in the series with L-6 cells [3] (read-out: Cytotoxicity L-6 Cells IC50, rat skeletal myoblasts, ref [12]), 72900 nM; in the series with P. falciparum NF54 [5] (ref [13]), 72 nM.

As to `Nc1cc(N2CC3C(c4ccccc4)CC(N4CCCC4)(CC3c3ccccc3)C2)nc(N)n1` (racemic) [Compound 12], the IC50 was found to be 33 ± 16 nM in the series with P. falciparum NF54 [6], 946 ± 374 nM in [7] and 172 ± 51 nM with P. falciparum K1 [4]. The compound further showed a half-maximal inhibitory concentration (IC50) at 72 h in “in vitro” of 11100 ± 836 nM.
